Assays:
Type in all cases: in vivo
[1] = test system: Zucker diabetic fatty (ZDF) rat; assay: Fasting blood glucose, plasma insulin, C-peptide and HOMA-IR in ZDF rats (Example 3); settings: vs vehicle ZDF
Procedure: (§1) For the groups treated with AB14, the antibody was administered once weekly via the caudal vein (i.v., 5 mL/kg) on days 1, 8, 15, and 22 at two different doses 20 mg/kg/week (groups 3 and 7) or 60 mg/kg/week (groups 4 and 8). All other groups were treated once weekly with vehicle 1 (i.v., 5 mL/kg). The intravenous treatments were performed in the morning on day 1, 8, 15, and 22 while under isoflurane anaesthesia. The volume of administration was individually adapted according to the most recent body weight.
(§2) All other groups were treated daily with vehicle 2 (p.o., 5 mL/kg) for 28 days. The most recent body weight was used to calculate the average volume of administration in each group.
(§3) A fasting (6 hours on day 0 from 8:00 am to 02:00 pm, and overnight on day 12, 19 and 26 from ˜6:00 pm to ˜8:00 am) was performed before each blood collection. Blood was collected at ˜2:00 pm, from the tip of the tail, on day 0 (before screening, 150 μL, potassium EDTA), and at ˜8:00 am prior to dosing on days 12 (110 μL, potassium EDTA), 19 (150 μL, potassium EDTA) and 26, (110 μL, potassium EDTA).
(§4) Fasting blood glucose (glucometers) was measured on days 0, 12, 19, and 26. Fasting plasma insulin, peptide-C (ELISA method), free fatty acids, triglycerides, total cholesterol (colorimetric method), and HDL-cholesterol (phosphotungstate precipitation, colorimetric method) were measured on day 0, and prior to dosing on days 12, 19, and day 26. Non HDL-cholesterol was calculated as total cholesterol—HDL-cholesterol. Fructosamine was measured on days 0, 19 and 28. HbA1c (DCA 2000) was measured on days 0 and 28.

[2] = test system: Zucker diabetic fatty (ZDF) rat; assay: Plasma triglycerides, free fatty acids and cholesterol in ZDF rats (Example 3); settings: for increase of plasma HDL-cholesterol / decrease of plasma non HDL-cholesterol levels: vs vehicle; for lowering of plasma free fatty acids levels: vs vehicle ZDF
Procedure: as §1, §2, §3, §4

[3] = test system: Zucker diabetic fatty (ZDF) rat; assay: Fructosamine and HbA1c in ZDF rats (Example 3); settings: vs vehicle ZDF
Procedure: as §1, §2, §4

[4] = test system: Zucker diabetic fatty (ZDF) rat; assay: Oral glucose tolerance test on day 26 in ZDF rats (Example 3)
Procedure: The oral glucose tolerance test (OGTT) was performed as follows. On day 25, rats were fasted at ˜6:00 pm and an oral glucose tolerance test was performed the day after (on day 26). At ˜8:00 am (T-60) a blood collection (110 μL, EDTA) was performed for biochemical parameters measurements. One hour after (˜09:00 am), an oral glucose bolus (1.5 g/kg) was administered (T0). Blood glucose was measured (glucometer or colorimetric method in case of high glycaemia) on T-60, T0, T15, T30, T60, T90, T120, and T180 minutes. Area under the curve (AUC) was calculated based on the blood glucose values measured at T0. Plasma insulin and C-peptide were measured (ELISA method) on T-60, T15 (·40 μL of blood, EDTA), and T30 minutes (·40 μL of blood, EDTA).

[5] = test system: Zucker diabetic fatty (ZDF) rat; assay: Body weight and food intake in ZDF rats (Example 3); settings: pioglitazone 10 mg/kg/day, vs vehicle ZDF
Procedure: as §1, with “weight. […] All other groups were treated daily with vehicle 2 (p.o., 5 mL/kg) for 28 days. The most recent body weight was used to calculate the average volume of administration in each group. Body weight was measured twice a week during the 4 weeks of treatment. Food consumption was measured just before the screening procedure and then twice weekly over 24 h during the first three weeks of treatment. Food consumption was measured once weekly during the week of OGTT (week 4).” for “weight.”

[6] = day 12, pioglitazone 10 mg/kg/day
[7] = day 19, pioglitazone 10 mg/kg/day
[8] = day 26, pioglitazone 10 mg/kg/day
[9] = days 12, 19 and 26, pioglitazone 10 mg/kg/day
[10] = OGTT day 26, pioglitazone 10 mg/kg/day, vs vehicle ZDF

Structure (SMILES): CCc1ccc(CCOc2ccc(CC3SC(=O)NC3=O)cc2)nc1 (centres unmarked) [pioglitazone]
- reduction of HOMA-IR [1, 6]: 67%
- reduction of HOMA-IR [1, 7]: 62%
- reduction of HOMA-IR [1, 8]: 54%
- plasma C-peptide levels [1, 9]: no effect
- plasma insulin levels [1, 9]: no effect
- increase of plasma HDL-cholesterol [2, 6]: 38%
- lowering of plasma free fatty acids levels [2, 6]: 35%
- decrease of plasma non HDL-cholesterol levels [2, 7]: 49%
- increase of plasma HDL-cholesterol [2, 7]: 17%
- lowering of plasma free fatty acids levels [2, 7]: 17%
- decrease of plasma non HDL-cholesterol levels [2, 8]: 47%
- increase of plasma HDL-cholesterol [2, 8]: 19%
- lowering of plasma free fatty acids levels [2, 8]: 30%
- decrease of HbA1c ([3]; 28 days, pioglitazone 10 mg/kg/day, metformin 200 mg/kg/day): 44%
- reduction of fructosamine levels ([3]; day 19, pioglitazone 10 mg/kg/day, metformin 200 mg/kg/day): 30%
- reduction of fructosamine levels ([3]; day 28, pioglitazone 10 mg/kg/day): 25%
- increase of C-peptide secretion (relative to T-60) at T15 [4, 10]: 21%
- increase of C-peptide secretion (relative to T-60) at T30 [4, 10]: 22%
- increase of insulin secretion (relative to T-60) at T30 [4, 10]: 5%
- increase of insulin secretion (relative to T-60) at T15 ([4]; OGTT day 26, vs vehicle ZDF (pioglitazone 10 mg/kg/day)): 20%
- reduction in blood glucose AUC (OGTT) ([4]; day 26, pioglitazone 10 mg/kg/day, metformin 200 mg/kg/day, vs vehicle ZDF): 54%
- body weight gain at the end of the treatment [5]: 3 fold
- increase of cumulative food intake ([5]; NS): 14%
